Results published in patent US20060052288A1, “Pharmaceutical composition for inhibiting the metastasis or preventing the recurrence of malignant tumor” (priority 2001, published 2006).

Assays:
[1] = test system: H460 cells (human lung cancer); assay: H460 metastatic models (Experiment 4); format: in vivo, mouse xenograft; design: key to Lymph node MI (Metastatic Incidence) / Liver MI (Metastatic Incidence) / Lung MI (Metastatic Incidence): number of animals with metastasis in the organ (out of 10); conditions: NCr nu/nu mice, 10 animals, checked day 36
Method: Experiment 4 (H460 Metastatic Models)
A segment (2 mm^2) of H460 cells (human lung cancer) was implanted into the left lung of 100 NCr nu/nu female mice (5 to 6 weeks old, 10 animals per group). […] On the other hand, in the control group (untreated with test compound), only a physiological saline solution was administered. The presence or absence of the metastasis of each organ was checked on the 36th day after the implantation of tumor.

[2] = test system: HT-29 cells (human colon cancer); assay: HT-29 metastatic models, dosing from day 15 (Experiment 2); format: in vivo, mouse; conditions: 10 animals, checked day 84; for Other organs MI (Metastatic Incidence): Diaphragm, Abdominal cavity, Thoracic cavity; for Liver MI (Metastatic Incidence) / Lung MI (Metastatic Incidence) / Lymph node MI (Metastatic Incidence) / Number of animals with metastasis: NCr nu/nu mice
Method: A test compound (Compound A; the compound obtained in Preparation 1 as mentioned below, Compound B; the compound obtained in Preparation 4 as mentioned below, and Irinotechan (CPT-11)) was dissolved in a physiological saline solution, and each amount as indicated in Table 2 as mentioned below was administered intravenously to the mice on the 15th, 19th, 23rd and 25th day after the implantation of tumor. On the other hand, in the control group (untreated with test compound), only a physiological saline solution was administered. The presence or absence of the metastasis of each organ was checked on the 84th day after the implantation of tumor.

[3] = test system: M 5076 cells (mouse ovarian sarcoma cells); assay: M 5076 liver metastatic models (survival); format: in vivo; conditions: for Prolongation rate of survival (%) / Survival days: BDF1 male mice; for Prolongation rate of survival (%): vs control; for Survival days: observed 120 days
Method: Experiment 1 (M 5076 Liver Metastatic Models)
One million of M 5076 cells (mouse ovarian sarcoma cells) were implanted into BDF1 male mice (5-weeks old, 8 animals per group) at the tail vein. […] In the control group (untreated with test compound), only a physiological saline solution was administered. The survival time (days) was measured in both the test compound-treated groups and the control group, and the prolongation rate of survival was calculated according to the following equation.

[4] = test system: HT-29 cells (human colon cancer); assay: HT-29 metastatic models, dosing after lymph node metastasis observed (Experiment 3); format: in vivo; conditions: 10 animals, checked day 84; for Other organs MI (Metastatic Incidence): Diaphragm, Abdominal cavity, Thoracic cavity; for Liver MI (Metastatic Incidence) / Lung MI (Metastatic Incidence) / Lymph node MI (Metastatic Incidence) / Number of animals with metastasis: NCr nu/nu mice
Method: Experiment 3 (HT-29 Metastatic Models)
A segment (2 mm^2) of HT-29 cells (human colon cancer) was implanted into the vermiform appendix of 100 NCr nu/nu female mice (5 to 6 weeks old, 10 animals per group). Since the lymph node metastasis was observed on the 49th day after the implantation of tumor, a test compound (Compound A; the compound obtained in Preparation 1 as mentioned below, and Irinotechan (CPT-11)) was dissolved in a physiological saline solution, and each amount as indicated in Table 3 as mentioned below was administered intravenously to the mice on the 51st, 55th, 59th, and 63rd day after the implantation of tumor. On the other hand, in the control group (untreated with test compound), only a physiological saline solution was administered. The presence or absence of the metastasis of each organ was checked on the 84th day after the implantation of tumor.

[5] = 40 mg/kg i.v. days 14, 18, 22, 26
[6] = 80 mg/kg i.v. days 14, 18, 22, 26
[7] = 20 mg/kg i.v. days 15, 19, 23, 25
[8] = 40 mg/kg i.v. days 15, 19, 23, 25
[9] = 40 mg/kg i.v. days 51, 55, 59, 63
[10] = 5 mg/kg i.v. days 14, 18, 22, 26
[11] = 10 mg/kg i.v. days 14, 18, 22, 26
[12] = 20 mg/kg i.v. days 14, 18, 22, 26
[13] = 5 mg/kg i.v. days 15, 19, 23, 25
[14] = 10 mg/kg i.v. days 15, 19, 23, 25
[15] = 20 mg/kg i.v. days 51, 55, 59, 63
[16] = 2.5 mg/kg i.v. days 14, 18, 22, 26
[17] = 2.5 mg/kg i.v. days 15, 19, 23, 25

Compound: CCc1c2c(nc3ccc(OC(=O)N4CCC(N5CCCCC5)CC4)cc13)-c1cc3c(c(=O)n1C2)COC(=O)[C@]3(O)CC [Irinotecan, reference compound]
- Liver MI (Metastatic Incidence) [1, 5]: 0
- Lung MI (Metastatic Incidence) [1, 5]: 1
- Lymph node MI (Metastatic Incidence) [1, 5]: 0
- Number of animals with metastasis [1, 5]: 1
- Liver MI (Metastatic Incidence) [1, 6]: 0
- Lung MI (Metastatic Incidence) [1, 6]: 0
- Lymph node MI (Metastatic Incidence) [1, 6]: 2
- Number of animals with metastasis [1, 6]: 2
- Other organs MI (Metastatic Incidence) [2, 7]: 0
- Other organs MI (Metastatic Incidence) [2, 8]: 1
- Liver MI (Metastatic Incidence) [2, 7]: 2
- Lung MI (Metastatic Incidence) [2, 7]: 2
- Lymph node MI (Metastatic Incidence) [2, 7]: 9
- Number of animals with metastasis [2, 7]: 9
- Liver MI (Metastatic Incidence) [2, 8]: 0
- Lung MI (Metastatic Incidence) [2, 8]: 1
- Lymph node MI (Metastatic Incidence) [2, 8]: 7
- Number of animals with metastasis [2, 8]: 7
- Prolongation rate of survival (%) ([3]; 80 mg/kg i.v. on days 4, 8, 12): 50.0%
- Survival days ([3]; 80 mg/kg i.v. on days 4, 8, 12 after implantation): 22.50 days
- Other organs MI (Metastatic Incidence) [4, 9]: 1
- Liver MI (Metastatic Incidence) [4, 9]: 1
- Lung MI (Metastatic Incidence) [4, 9]: 0
- Lymph node MI (Metastatic Incidence) [4, 9]: 8
- Number of animals with metastasis [4, 9]: 8

Compound: CM-dextran-7-ethyl-10-[3′-(glycyl-glycyl-glycylamino)propyloxy]-(20S)-camptothecin [Compound A]
- Liver MI (Metastatic Incidence) [1, 10]: 0
- Lung MI (Metastatic Incidence) [1, 10]: 1
- Lymph node MI (Metastatic Incidence) [1, 10]: 2
- Number of animals with metastasis [1, 10]: 2
- Liver MI (Metastatic Incidence) [1, 11]: 0
- Lung MI (Metastatic Incidence) [1, 11]: 0
- Lymph node MI (Metastatic Incidence) [1, 11]: 1
- Number of animals with metastasis [1, 11]: 1
- Liver MI (Metastatic Incidence) [1, 12]: 0
- Lung MI (Metastatic Incidence) [1, 12]: 2
- Lymph node MI (Metastatic Incidence) [1, 12]: 2
- Number of animals with metastasis [1, 12]: 3
- Liver MI (Metastatic Incidence) [1, 5]: 0
- Lung MI (Metastatic Incidence) [1, 5]: 0
- Lymph node MI (Metastatic Incidence) [1, 5]: 1
- Number of animals with metastasis [1, 5]: 1
- Other organs MI (Metastatic Incidence) [2, 13]: 2
- Other organs MI (Metastatic Incidence) [2, 14]: 0
- Other organs MI (Metastatic Incidence) [2, 7]: 0
- Other organs MI (Metastatic Incidence) [2, 8]: 0
- Liver MI (Metastatic Incidence) [2, 13]: 0
- Lung MI (Metastatic Incidence) [2, 13]: 1
- Lymph node MI (Metastatic Incidence) [2, 13]: 6
- Number of animals with metastasis [2, 13]: 6
- Liver MI (Metastatic Incidence) [2, 14]: 0
- Lung MI (Metastatic Incidence) [2, 14]: 2
- Lymph node MI (Metastatic Incidence) [2, 14]: 8
- Number of animals with metastasis [2, 14]: 8
- Liver MI (Metastatic Incidence) [2, 7]: 0
- Lung MI (Metastatic Incidence) [2, 7]: 1
- Lymph node MI (Metastatic Incidence) [2, 7]: 1
- Number of animals with metastasis [2, 7]: 2
- Liver MI (Metastatic Incidence) [2, 8]: 0
- Lung MI (Metastatic Incidence) [2, 8]: 0
- Lymph node MI (Metastatic Incidence) [2, 8]: 0
- Number of animals with metastasis [2, 8]: 0
- Prolongation rate of survival (%) ([3]; 12.5 mg/kg i.v. on days 4, 8, 12): 150.5%
- Survival days ([3]; 12.5 mg/kg i.v. on days 4, 8, 12 after implantation): 37.57 days
- Prolongation rate of survival (%) ([3]; 25 mg/kg i.v. on days 4, 8, 12): 187.5%
- Survival days ([3]; 25 mg/kg i.v. on days 4, 8, 12 after implantation): 43.13 days
- Prolongation rate of survival (%) ([3]; 50 mg/kg i.v. on days 4, 8, 12): 224.8%
- Survival days ([3]; 50 mg/kg i.v. on days 4, 8, 12 after implantation): 48.71 days
- activity of prolonging lifetime ([3]; M5076 liver metastatic models, summary in words): excellent activity of prolonging lifetime
- Other organs MI (Metastatic Incidence) [4, 15]: 1
- Other organs MI (Metastatic Incidence) [4, 9]: 2
- Liver MI (Metastatic Incidence) [4, 15]: 0
- Lung MI (Metastatic Incidence) [4, 15]: 0
- Lymph node MI (Metastatic Incidence) [4, 15]: 2
- Number of animals with metastasis [4, 15]: 3
- Liver MI (Metastatic Incidence) [4, 9]: 0
- Lung MI (Metastatic Incidence) [4, 9]: 0
- Lymph node MI (Metastatic Incidence) [4, 9]: 0
- Number of animals with metastasis [4, 9]: 2

Compound: carboxymethyldextran-polyalcohol-(1S,9S)-1-(glycyl-glycyl-L-phenylalanyl-glycylamino)-9-ethyl-5-fluoro-2,3-dihydro-9-hydroxy-4-methyl-1H,12H-benzo[de]pyrano[3′,4′:6,7] indolizino[1,2-b]quinoline-10,13(9H,15H)-dione [Compound B]
- Liver MI (Metastatic Incidence) [1, 16]: 0
- Lung MI (Metastatic Incidence) [1, 16]: 0
- Lymph node MI (Metastatic Incidence) [1, 16]: 1
- Number of animals with metastasis [1, 16]: 1
- Liver MI (Metastatic Incidence) [1, 10]: 0
- Lung MI (Metastatic Incidence) [1, 10]: 1
- Lymph node MI (Metastatic Incidence) [1, 10]: 2
- Number of animals with metastasis [1, 10]: 2
- Other organs MI (Metastatic Incidence) [2, 17]: 1
- Other organs MI (Metastatic Incidence) [2, 13]: 0
- Liver MI (Metastatic Incidence) [2, 17]: 1
- Lung MI (Metastatic Incidence) [2, 17]: 1
- Lymph node MI (Metastatic Incidence) [2, 17]: 6
- Number of animals with metastasis [2, 17]: 6
- Liver MI (Metastatic Incidence) [2, 13]: 0
- Lung MI (Metastatic Incidence) [2, 13]: 0
- Lymph node MI (Metastatic Incidence) [2, 13]: 0
- Number of animals with metastasis [2, 13]: 0
